Results reported in patent US20200068890A1 (Person to Whom the Inventor is Obligated to Assign, priority 2017, published 2020).
One block for each compound: values may come before it.

Columns and labels:
A. thaliana DHDPS = system: T1, A. thaliana DHDPS; experiment: DHDPS-DHDPR coupled assay, dose response inhibitor assay; assay type: biochemical, Arabidopsis thaliana
T1 construct: AtDHDPS|10|0.00008; no borders, domain or tags given
Procedure: DHDPS enzyme activity was determined using the coupled assay in a Cary 4000 UV/Vis spectrophotometer at 340 nm in 1 cm acrylic cuvettes. A master mix was prepared for each reaction as per Table 1. Reaction mixtures containing enzymes, pyruvate, buffer and NADPH were incubated at 30° C. for 12 mins before the addition of ASA to initiate the reaction. The oxidation of NADPH to NADP^+ was then monitored at 340 nm at 30° C. as a function of time. The initial rate (ΔA340·min^−1) was calculated from the slope of the linear portion of the A340 versus time profile. All experiments were carried out in triplicate. The enzyme kinetic parameters, including KM values, were determined using the Michaelis-Menten equation (Equation 1). Unless otherwise stated, all kinetic data were fitted using the built-in equations in GraphPad Prism.
To determine/C50 values for the inhibitors, A. thaliana DHDPS enzyme activity was measured using the coupled assay (detailed above) in the presence of increasing concentrations of inhibitor. The initial rate was then plotted as a function of the log 10 of the inhibitor concentration and the/C50 determined according to Equation 2.

[1] = system: human kidney cells (HEK293); experiment: MTT viability assay; conditions: for % Viability Remaining 1 / % Viability Remaining 2 / % Viability Remaining 3: 48 hrs
Procedure: (§1) Cells were harvested and resuspended in growth media (5-10 ml) to count. Cells were diluted to the appropriate concentration (5×10^3), and seeded into 96-well plates as follows: (a) 50 μl of cells per well, (b) 100 μl of growth media in the Blank wells, (c) 100 μl PBS in outer wells (to prevent dehydration of media from the cells). Cells were incubated overnight at 37° C. (5% CO2).
(§2) Compounds were prepared as serial dilutions in growth media. Each treatment concentration was performed in triplicate. 50 μl/well of prepared compound was added to cells.
(§3) A no treatment triplicate (100% viability) was also included by adding 50 μl of growth media to cells. Plates were returned to the incubator for 48 hrs.
(§4) MTT powder in 1×PBS was prepared at 5 mg/ml and filter sterilised. MTT was added to serum-free media to a final concentration of 1 mg/ml. 100 μl of the MTT solution (1 mg/ml) was added to each well, including 0 μM and blank wells. Plates were incubated at 37° C. in incubator for 3 hrs. Following incubation, the media was removed from wells without disrupting the purple crystals formed. 100 μl of DMSO was added to each well using a multichannel pipette. The plates were shaken on the plate shaker until all the crystals have dissolved. The absorbance was measured at 570 nm using a plate reader. The data was analysed using Microsoft Excel. For each treatment concentration the average was calculated, the blank was subtracted and the cell viability was determined as a percentage of the no treatment control (DMSO vehicle control).

[2] = system: human liver cells (HepG2); experiment: MTT viability assay; conditions: for % viability 1 / % viability 2 / % viability 3: 48 hrs
Procedure: as §1, §2, §3, §4

IC50 (A. thaliana DHDPS): 66.1 µM
SMILES: COc1ccc(/C=C2\NC(=O)N(CC(=O)O)C2=O)cc1 [Compound 42, (Z)-2-(4-(4-Methoxybenzylidene)-2,5-dioxoimidazolidin-1-yl)acetic Acid]
% Viability Remaining 1 ([1]; HEK293, 12.5 μM): 104%
% Viability Remaining 2 ([1]; HEK293, 12.5 μM): 93.9%
% Viability Remaining 3 ([1]; HEK293, 12.5 μM): 87.6%
% Viability Remaining 1 ([1]; HEK293, 25 μM): 110%
% Viability Remaining 2 ([1]; HEK293, 25 μM): 93.9%
% Viability Remaining 3 ([1]; HEK293, 25 μM): 87.6%
% Viability Remaining 1 ([1]; HEK293, 50 μM): 80.6%
% Viability Remaining 2 ([1]; HEK293, 50 μM): 94.5%
% Viability Remaining 3 ([1]; HEK293, 50 μM): 98.9%
% Viability Remaining 1 ([1]; HEK293, 100 μM): 110%
% Viability Remaining 2 ([1]; HEK293, 100 μM): 107%
% Viability Remaining 3 ([1]; HEK293, 100 μM): 115%
% Viability Remaining 1 ([1]; HEK293, 200 μM): 94.0%
% Viability Remaining 2 ([1]; HEK293, 200 μM): 99.6%
% Viability Remaining 3 ([1]; HEK293, 200 μM): 94.1%
% Viability Remaining 1 ([1]; HEK293, 400 μM): 105%
% Viability Remaining 2 ([1]; HEK293, 400 μM): 103%
% Viability Remaining 3 ([1]; HEK293, 400 μM): 80.9%
toxicity to HEK293 cells (in words) ([1]; HEK293, MTT, up to 400 μM (Defensin 100 μM)): effectively nontoxic
% viability 1 ([2]; HepG2, 12.5 μM): 81.0%
% viability 2 ([2]; HepG2, 12.5 μM): 99.1%
% viability 3 ([2]; HepG2, 12.5 μM): 70.9%
% viability 1 ([2]; HepG2, 25 μM): 81.0%
% viability 2 ([2]; HepG2, 25 μM): 99.1%
% viability 3 ([2]; HepG2, 25 μM): 70.9%
% viability 1 ([2]; HepG2, 50 μM): 88.8%
% viability 2 ([2]; HepG2, 50 μM): 98.3%
% viability 3 ([2]; HepG2, 50 μM): 90.4%
% viability 1 ([2]; HepG2, 100 μM): 88.0%
% viability 2 ([2]; HepG2, 100 μM): 86.0%
% viability 3 ([2]; HepG2, 100 μM): 84.1%
% viability 1 ([2]; HepG2, 200 μM): 98.4%
% viability 2 ([2]; HepG2, 200 μM): 101%
% viability 3 ([2]; HepG2, 200 μM): 82.4%
% viability 1 ([2]; HepG2, 400 μM): 80.9%
% viability 2 ([2]; HepG2, 400 μM): 82.9%
% viability 3 ([2]; HepG2, 400 μM): 82.1%
toxicity to HepG2 cells (in words) ([2]; HepG2, MTT, up to 400 μM (Defensin 100 μM)): effectively nontoxic

IC50 (A. thaliana DHDPS): 162 µM
SMILES: O=C(O)CN1C(=O)S/C(=C\c2ccc(O)cc2O)C1=O [Compound 21, 2-(5-(2,4-Dihydroxybenzylidene)-2,4-dioxothiazolidin-3-yl)acetic Acid]
